Test results as given in US8148391B2 (Cephalon, Inc., priority 2006, dated 2012).
Where two headings read alike, the source gives them in different places. One block for each molecule: values may come before it.

Legend:
[1] = target: T1, baculovirus-expressed ALK (Homo sapiens, UniProt Q9UM73); experiment: ALK Kinase Assay (ELISA-type, time-resolved fluorescence); assay type: biochemical
T1 construct: host or cells: baculovirus expression system
Outline: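 Wells were coated with phospholipase C-γ at 10 μg/mL in Tris-buffered saline. Adding 30 ng/ml enzyme started the reaction, which ran at 37° C for 15 minutes before Eu-N1 PT66 antibody detection. Percent inhibition versus log10 concentration gave IC50 by variable-slope fit.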

[2] = target: T2, c-Met (cytoplasmic domain) (Homo sapiens, UniProt P08581); experiment: c-Met Kinase Assay (same methods as for ALK, with modifications); assay type: biochemical
T2 construct: 10 ng/mL c-Met (cytoplasmic domain, Invitrogen Corporation #PV3143); purchased Invitrogen Corporation PV3143
T2 sequence (P08581 956-1390 limits assumed): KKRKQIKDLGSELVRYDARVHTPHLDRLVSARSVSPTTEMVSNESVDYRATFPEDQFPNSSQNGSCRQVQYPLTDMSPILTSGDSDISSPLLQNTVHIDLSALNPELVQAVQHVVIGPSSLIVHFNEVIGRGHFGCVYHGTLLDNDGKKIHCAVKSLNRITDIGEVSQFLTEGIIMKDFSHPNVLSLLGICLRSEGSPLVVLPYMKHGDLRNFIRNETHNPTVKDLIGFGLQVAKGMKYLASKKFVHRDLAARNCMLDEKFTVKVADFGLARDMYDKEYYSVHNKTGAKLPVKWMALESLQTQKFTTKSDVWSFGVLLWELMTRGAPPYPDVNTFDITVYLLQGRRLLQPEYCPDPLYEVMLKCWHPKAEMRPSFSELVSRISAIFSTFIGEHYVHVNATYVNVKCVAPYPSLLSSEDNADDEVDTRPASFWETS
Outline: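 Steps: coat wells with PLC-γ (10 μg/mL, Tris-buffered saline); add 10 ng/mL c-Met cytoplasmic domain to initiate; incubate 15 min, 37° C; detect phosphoproduct via Eu-N1 PT66 antibody.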

[3] = 1 μM ATP (Km level), 30 ng/ml ALK, 37° C., 15 minutes, read-out: ALK Activity (ALK kinase inhibition, IC50 class)
[4] = 1 μM ATP (Km level), 10 ng/mL c-Met, read-out: cMet Activity (c-Met kinase inhibition, IC50 class)
[5] = ALK kinase inhibition, 1 μM ATP (Km level), read-out: ALK Activity
[6] = c-Met kinase inhibition, 1 μM ATP (Km level), read-out: cMet Activity
[7] = 1 μM ATP (Km level), read-out: ALK Activity (ALK Kinase Inhibition, IC50)
[8] = 1 μM ATP (Km level), read-out: cMet Activity (c-Met Kinase Inhibition, IC50)
[9] = ALK kinase inhibition, 1 μM ATP, read-out: ALK Activity
[10] = c-Met kinase inhibition, 1 μM ATP, read-out: cMet Activity

T1 sequence (Q9UM73 19-1620): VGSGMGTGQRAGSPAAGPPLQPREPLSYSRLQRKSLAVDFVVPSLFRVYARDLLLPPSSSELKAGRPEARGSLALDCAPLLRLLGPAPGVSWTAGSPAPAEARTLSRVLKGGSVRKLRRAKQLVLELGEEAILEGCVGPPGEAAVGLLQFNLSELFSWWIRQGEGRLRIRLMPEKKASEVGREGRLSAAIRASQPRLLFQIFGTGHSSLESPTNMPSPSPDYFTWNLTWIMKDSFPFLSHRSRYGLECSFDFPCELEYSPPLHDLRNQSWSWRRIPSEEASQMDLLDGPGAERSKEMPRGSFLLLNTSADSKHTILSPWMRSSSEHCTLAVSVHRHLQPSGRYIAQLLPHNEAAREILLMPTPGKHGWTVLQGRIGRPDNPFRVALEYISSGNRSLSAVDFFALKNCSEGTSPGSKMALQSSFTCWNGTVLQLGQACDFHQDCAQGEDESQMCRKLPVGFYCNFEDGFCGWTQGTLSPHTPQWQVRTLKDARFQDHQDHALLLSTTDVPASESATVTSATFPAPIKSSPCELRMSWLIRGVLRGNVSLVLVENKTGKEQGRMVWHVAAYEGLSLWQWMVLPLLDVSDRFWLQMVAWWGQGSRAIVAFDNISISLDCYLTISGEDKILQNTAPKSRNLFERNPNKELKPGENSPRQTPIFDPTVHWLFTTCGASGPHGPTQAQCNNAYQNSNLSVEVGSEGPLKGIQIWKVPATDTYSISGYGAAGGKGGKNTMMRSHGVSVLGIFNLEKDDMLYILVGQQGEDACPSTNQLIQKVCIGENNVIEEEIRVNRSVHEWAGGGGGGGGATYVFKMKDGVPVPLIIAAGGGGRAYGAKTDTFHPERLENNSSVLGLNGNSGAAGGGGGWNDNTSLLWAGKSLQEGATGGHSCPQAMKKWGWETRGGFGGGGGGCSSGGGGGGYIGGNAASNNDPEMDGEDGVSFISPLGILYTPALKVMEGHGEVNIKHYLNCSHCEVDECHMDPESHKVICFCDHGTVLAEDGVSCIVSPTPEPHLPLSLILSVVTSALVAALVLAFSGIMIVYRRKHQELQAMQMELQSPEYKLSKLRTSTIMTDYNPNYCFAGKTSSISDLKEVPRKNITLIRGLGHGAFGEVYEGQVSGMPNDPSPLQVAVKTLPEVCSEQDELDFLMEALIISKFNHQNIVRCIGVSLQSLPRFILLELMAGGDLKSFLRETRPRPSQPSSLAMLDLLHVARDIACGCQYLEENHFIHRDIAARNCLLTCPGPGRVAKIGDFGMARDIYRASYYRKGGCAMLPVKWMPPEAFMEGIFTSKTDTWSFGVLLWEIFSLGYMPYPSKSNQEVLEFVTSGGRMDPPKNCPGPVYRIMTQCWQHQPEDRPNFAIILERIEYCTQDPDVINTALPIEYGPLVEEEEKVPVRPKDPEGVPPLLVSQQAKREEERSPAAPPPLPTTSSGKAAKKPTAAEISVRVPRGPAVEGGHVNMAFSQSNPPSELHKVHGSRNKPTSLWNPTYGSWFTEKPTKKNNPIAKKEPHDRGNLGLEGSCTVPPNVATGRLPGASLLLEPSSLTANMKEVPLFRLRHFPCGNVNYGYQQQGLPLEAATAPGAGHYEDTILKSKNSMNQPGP

IC50 [1, 3]: < 100 nM
IC50 [2, 4]: > 10000 nM
Compound: CCN1C(=O)[C@@H](N)CCc2c1ccc(Nc1ncc(Cl)c(N[C@H]3[C@@H](C(N)=O)[C@@H]4C=C[C@H]3C4)n1)c2OC (single isomer, unassigned) [Example 1332]

IC50 [1, 3]: 100 to 1000 nM
IC50 [2, 4]: < 100 nM
Compound: C#CCNC(=O)c1cccc(F)c1Nc1nc(Nc2ccc3c(c2)N(CC)C(=O)CCC3(C)C)ncc1Cl [Example 1405, 2-[5-Chloro-2-(1-ethyl-5,5-dimethyl-2-oxo-2,3,4,5-tetrahydro-1H-benzo[b]azepin-8-ylamino)-pyrimidin-4-ylamino]-3-fluoro-N-prop-2-ynyl-benzamide]

IC50 [1, 5]: < 100 nM
IC50 [2, 6]: 1000 to 10000 nM
Compound: CCC1C(=O)N(CC)CCc2c1ccc(Nc1ncc(Cl)c(Nc3ccccc3C(=O)NC)n1)c2OC (stereo not drawn) [Example 152, 2-[5-Chloro-2-(1,3-diethyl-6-methoxy-2-oxo-2,3,4,5-tetrahydro-1H-benzo[d]azepin-7-ylamino)-pyrimidin-4-ylamino]-N-methyl-benzamide]

IC50 [1, 7]: < 100 nM
IC50 [2, 8]: 1000 to 10000 nM
Compound: CCN1CCN(CC)c2cc(Nc3ncc(Cl)c(N[C@H]4[C@@H]5CC[C@@H](C5)[C@H]4C(N)=O)n3)ccc2C1 [Example 717, (2-exo,3-exo)-3-[5-Chloro-2-(1,4-diethyl-2,3,4,5-tetrahydro-1H-1,4-benzodiazepin-8-ylamino)-pyrimidin-4-ylamino]bicyclo[2.2.1]heptane-2-carboxylic acid amide]

IC50 [1, 3]: 100 to 1000 nM
IC50 [2, 4]: 1000 to 10000 nM
Compound: COCCN1CCc2ccc(Nc3ncc(Cl)c(N[C@@H]4CCCC[C@H]4N(CC#N)S(C)(=O)=O)n3)cc2CC1 [Example 1383, N-((1R,2R)-2-{5-Chloro-2-[3-(2-methoxy-ethyl)-2,3,4,5-tetrahydro-1H-benzo[d]azepin-7-ylamino]-pyrimidin-4-ylamino}-cyclohexyl)-N-cyanomethyl-methanesulfonamide]

IC50 [1, 5]: 100 to 1000 nM
IC50 [2, 6]: 1000 to 10000 nM
Compound: COCCN1CCc2ccc(Nc3ncc(Cl)c(N[C@@H]4CCCC[C@H]4NS(=O)(=O)C4CC4)n3)cc2CC1 [Example 454, Cyclopropanesulfonic acid ((1R,2R)-2-{5-chloro-2-[3-(2-methoxy-ethyl)-2,3,4,5-tetrahydro-1H-benzo[d]azepin-7-ylamino]-pyrimidin-4-ylamino}-cyclohexyl)-amide]

IC50 [1, 5]: 100 to 1000 nM
IC50 [2, 6]: < 100 nM
Compound: CNC(=O)c1ccccc1Nc1nc(Nc2ccc3c(c2)C2CC3CN(S(C)(=O)=O)C2)ncc1Cl (stereo not drawn) [Example 164, 2-[5-Chloro-2-(10-methanesulfonyl-10-aza-tricyclo[6.3.1.0*2,7*]dodeca-2,4,6-trien-4-ylamino)-pyrimidin-4-ylamino]-N-methyl-benzamide]

IC50 [1, 5]: 100 to 1000 nM
IC50 [2, 6]: 1000 to 10000 nM
Compound: COCCN1CCc2ccc(Nc3ncc(Cl)c(NC(C)CNS(C)(=O)=O)n3)cc2CC1 (stereo not drawn) [Example 303, N-(2-{5-Chloro-2-[3-(2-methoxy-ethyl)-2,3,4,5-tetrahydro-1H-benzo[d]azepin-7-ylamino]-pyrimidin-4-ylamino}-propyl)-methanesulfonamide]

IC50 [1, 3]: < 100 nM
IC50 [2, 4]: < 100 nM
Compound: CCOC(=O)N1CCCOc2cc(Nc3ncc(Cl)c(Nc4ccccc4C(=O)NC)n3)ccc21 [Example 1419, 3-[5-Chloro-4-(2-methylcarbamoyl-phenylamino)-pyrimidin-2-ylamino]-7,8-dihydro-6H-5-oxa-9-aza-benzocycloheptene-9-carboxylic acid ethyl ester]

IC50 [1, 7]: < 100 nM
IC50 [2, 8]: > 10000 nM
Compound: COc1c(Nc2ncc(Cl)c(N[C@@H]3CCCC[C@H]3NS(C)(=O)=O)n2)ccc2c1CCCC(N1CCOCC1)C2 (stereo partly drawn) [Example 949, N-{(1R,2R)-2-[5-Chloro-2-(1-methoxy-6-morpholin-4-yl-6,7,8,9-tetrahydro-5H-benzocyclohepten-2-ylamino)-pyrimidin-4-ylamino]-cyclohexyl}-methanesulfonamide]

IC50 [1, 9]: < 100 nM
IC50 [2, 10]: 1000 to 10000 nM
Compound: COCCN1C(=O)CCC(C)(C)c2ccc(Nc3ncc(Cl)c(Nc4ccc(N5CCOCC5)cc4OC)n3)cc21 [Example 1584, 8-[5-Chloro-4-(2-methoxy-4-morpholin-4-yl-phenylamino)-pyrimidin-2-ylamino]-1-(2-methoxy-ethyl)-5,5-dimethyl-1,3,4,5-tetrahydro-benzo[b]azepin-2-one]

IC50 [1, 7]: < 100 nM
IC50 [2, 8]: < 100 nM
Compound: CCN1CCSc2ccc(Nc3ncc(Cl)c(Nc4ccccc4C(=O)NC)n3)cc2C1 [Example 517, 2-[5-Chloro-2-(8-ethyl-6,7,8,9-tetrahydro-5-thia-aza-benzocyclohepten-2-ylamino)-pyrimidin-4-ylamino]-N-methyl-benzamide]

IC50 [1, 9]: < 100 nM
IC50 [2, 10]: > 10000 nM
Compound: CCN1CC(=O)Nc2cc(Nc3ncc(Cl)c(Nc4ccc(N5CCOCC5)cc4OC)n3)c(OC)cc2C1 [Example 1661, 8-[5-Chloro-4-(2-methoxy-4-morpholin-4-yl-phenylamino)-pyrimidin-2-ylamino]-4-ethyl-7-methoxy-1,3,4,5-tetrahydro-benzo[e][1,4]diazepin-2-one]

The next lines start with the molecule.

Compound: COc1cc2c(cc1Nc1ncc(Cl)c(Nc3ccc[nH]c3=O)n1)CCN(CC(=O)N(C)C)CC2 [Example 1186, 2-{7-[5-Chloro-4-(2-oxo-1,2-dihydro-pyridin-3-ylamino)-pyrimidin-2-ylamino]-8-methoxy-1,2,4,5-tetrahydro-benzo[d]azepin-3-yl}-N,N-dimethyl-acetamide]
IC50 [1, 3]: < 100 nM
IC50 [2, 4]: > 10000 nM

Compound: CCN1C(=O)C(NC(=O)COC)CCc2c1ccc(Nc1ncc(Cl)c(Nc3ccccc3S(=O)(=O)N(C)C)n1)c2OC (stereo not drawn) [Example 1352, N-{7-[5-Chloro-4-(2-dimethylsulfamoyl-phenylamino)-pyrimidin-2-ylamino]-1-ethyl-6-methoxy-2-oxo-2,3,4,5-tetrahydro-1H-benzo[b]azepin-3-yl}-2-methoxy-acetamide]
IC50 [1, 3]: < 100 nM
IC50 [2, 4]: > 10000 nM

Compound: COc1cc2c(cc1Nc1ncc(Cl)c(Nc3ccccc3S(=O)(=O)N(C)C)n1)CCC(N1CCOCC1)CC2 (stereo not drawn) [Example 1049, 2-[5-Chloro-2-(3-methoxy-7-morpholin-4-yl-6,7,8,9-tetrahydro-5H-benzocyclohepten-2-ylamino)-pyrimidin-4-ylamino]-N,N-dimethyl-benzenesulfonamide]
IC50 [1, 3]: < 100 nM
IC50 [2, 4]: > 10000 nM

Compound: CNC(=O)c1ccccc1Nc1nc(Nc2ccc3c(c2)OCCCO3)ncc1Cl [Example 511]
IC50 [1, 7]: < 100 nM
IC50 [2, 8]: < 100 nM

Compound: CC1(C)CCC(=O)Nc2ccc(Nc3ncc(Cl)c(Nc4ccc5[nH]c(C(F)(F)F)nc5c4)n3)cc21 [Example 1014, 7-[5-Chloro-4-(2-trifluoromethyl-1H-benzoimidazol-5-ylamino)-pyrimidin-2-ylamino]-5,5-dimethyl-1,3,4,5-tetrahydro-benzo[b]azepin-2-one]
IC50 [1, 3]: < 100 nM
IC50 [2, 4]: > 10000 nM

Compound: CNC(=O)c1ccccc1Nc1nc(Nc2ccc3c(c2)C(C)(C)NC(=O)CC3)ncc1Cl [Example 1833, 2-(5-Chloro-2-(1,1-dimethyl-3-oxo-2,3,4,5-tetrahydro-1H-benzo[c]azepin-8-ylamino)pyrimidin-4-ylamino)-N-methylbenzamide]
IC50 [1, 9]: < 100 nM
IC50 [2, 10]: 100 to 1000 nM

Compound: CCC(=O)OCCN1CCc2cc(Nc3ncc(Cl)c(Nc4ccccc4S(=O)(=O)N(C)C)n3)c(OC)cc2CC1 [Example 1546, Propionic acid 2-{7-[5-chloro-4-(2-dimethylsulfamoyl-phenylamino)-pyrimidin-2-ylamino]-8-methoxy-1,2,4,5-tetrahydro-3-benzazepin-3-yl}-ethyl ester]
IC50 [1, 9]: < 100 nM
IC50 [2, 10]: 1000 to 10000 nM

Compound: COc1cc2c(cc1Nc1ncc(Cl)c(Nc3ccccc3S(=O)(=O)C(C)C)n1)CCN(CC(C)(F)F)CC2 [Example 828, 5-Chloro-N*2*-[3-(2,2-difluoro-propyl)-8-methoxy-2,3,4,5-tetrahydro-1H-benzo[d]azepin-7-yl]-N*4*-[2-(propane-2-sulfonyl)-phenyl]-pyrimidine-2,4-diamine]
IC50 [1, 7]: < 100 nM
IC50 [2, 8]: > 10000 nM

Compound: COc1cc(N2CCOCC2)ccc1Nc1nc(Nc2ccc3c(c2OC)CCCC(=O)N3)ncc1Cl [Example 140, 7-[5-Chloro-4-(2-methoxy-4-morpholin-4-yl-phenylamino)-pyrimidin-2-ylamino]-6-methoxy-1,3,4,5-tetrahydro-benzo[b]azepin-2-one]
IC50 [1, 5]: < 100 nM
IC50 [2, 6]: > 10000 nM

Compound: C#CCNC(=O)c1cccc(F)c1Nc1nc(Nc2ccc3c(c2)NC(=O)CCC3(C)C)ncc1Cl [Example 1406, 2-[5-Chloro-2-(5,5-dimethyl-2-oxo-2,3,4,5-tetrahydro-1H-benzo[b]azepin-8-ylamino)-pyrimidin-4-ylamino]-3-fluoro-N-prop-2-ynyl-benzamide]
IC50 [1, 3]: 100 to 1000 nM
IC50 [2, 4]: < 100 nM

Compound: COC(=O)c1sc(-c2ccccc2)c(C)c1Nc1nc(Nc2ccc3c(c2)CCOC(=O)N3C)ncc1Cl [Example 1762, 3-[5-Chloro-2-(5-methyl-6-oxo-5,6,8,9-tetrahydro-7-oxa-5-aza-benzocyclohepten-2-ylamino)-pyrimidin-4-ylamino]-4-methyl-5-phenyl-thiophene-2-carboxylic acid methyl ester]
IC50 [1, 9]: > 10000 nM
IC50 [2, 10]: > 10000 nM
